Experimental data from the supplement of paper PMC4862054.

Tests used:
Settings in all cases: incubation time: 72 h
CAL-120 [1] = assay: normalised viability (% of control), CellTiter-Blue; higher = more viable cells (about 100 = DMSO control)
Experimental: (§1)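 DSRT, CellTiter-Blue viability, 72 h incubation. Signal is normalised to DMSO and benzethonium chloride controls. Value is the normalised response at dose 3.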

MDA-MB-231 [2] = assay: as above
Experimental: as §1

DU-4475 = assay: as above
Experimental: as §1

HCC1143 [3] = assay: as above
Experimental: as §1

CAL-148 [4] = assay: as above
Experimental: as §1

CAL-85-1 [5] = assay: as above
Experimental: as §1

MDA-MB-453 [6] = assay: as above
Experimental: as §1

HDQ-P1 = assay: as above
Experimental: as §1

Hs578T = assay: as above
Experimental: as §1

BT-549 = assay: as above
Experimental: as §1

MDA-MB-468 = assay: as above
Experimental: as §1

MDA-MB-436 = assay: as above
Experimental: as §1

HCC1937 = assay: as above
Experimental: as §1

CAL-51 = assay: as above
Experimental: as §1

SK-BR-3 = assay: as above
Experimental: as §1

HCC1599 = assay: as above
Experimental: as §1

BT-474 = assay: as above
Experimental: as §1

MFM-223 = assay: as above
Experimental: as §1

CAL-120 [7] = assay: drug sensitivity score (DSS), CellTox Green (DSS (AUC-based score)); higher = stronger drug effect (viability inhibition or cytotoxicity); extreme values may be limits of the assay
How it was run: (§2)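 The area under the fitted dose-response curve was used to calculate the drug sensitivity score. Cells from breast cancer lines were incubated for 72 h in 384-well plates with compound at 5 concentrations spaced 10-fold over a 10,000-fold range specific to each compound. Plates were read for CellTox Green and then CellTiter-Glo, and normalised to 0.1 % DMSO and a positive kill control.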

MDA-MB-231 [8] = assay: as above
How it was run: as §2

HCC1143 [9] = assay: as above
How it was run: as §2

CAL-148 [10] = assay: as above
How it was run: as §2

CAL-85-1 [11] = assay: as above
How it was run: as §2

MDA-MB-453 [12] = assay: as above
How it was run: as §2

Structure (SMILES) | normalised viability (CAL-120 [1]; 100 nM) [%] | normalised viability (MDA-MB-231 [2]; 100 nM) [%] | normalised viability (DU-4475; 10 nM) [%] | normalised viability (HCC1143 [3]; 100 nM) [%] | normalised viability (CAL-148 [4]; 10 nM) [%] | normalised viability (CAL-85-1 [5]; 10 nM) [%] | normalised viability (MDA-MB-453 [6]; 10 nM) [%] | normalised viability (HDQ-P1; 10 nM) [%] | normalised viability (Hs578T; 100 nM) [%] | normalised viability (BT-549; 100 nM) [%] | normalised viability (MDA-MB-468; 100 nM) [%] | normalised viability (MDA-MB-436; 100 nM) [%] | normalised viability (HCC1937; 100 nM) [%] | normalised viability (CAL-51; 10 nM) [%] | drug sensitivity score (CAL-120 [7]) | drug sensitivity score (MDA-MB-231 [8]) | drug sensitivity score (HCC1143 [9]) | drug sensitivity score (CAL-148 [10]) | drug sensitivity score (CAL-85-1 [11]) | drug sensitivity score (MDA-MB-453 [12]) | also measured
C[C@]12C=CC(=O)C=C1CC[C@@H]1[C@@H]2C(=O)C[C@@]2(C)[C@H]1CC[C@]2(O)C(=O)CO [Prednisone] | 78.2 | 100 | 97.9 | 101 | 98.2 | 109 | 112 | 104 | 77.9 | 99.2 | 99.2 | 108 | 100 | 102 | 0.113 | 0 | 0 | 0 | 0 | 0 | normalised viability (SK-BR-3; 100 nM): 77%; normalised viability (HCC1599; 100 nM): 98.5%; normalised viability (BT-474; 100 nM): 117%; normalised viability (MFM-223; 100 nM): 92.3%
CO[C@H]1C[C@@H]2CC[C@@H](C)[C@@](O)(O2)C(=O)C(=O)N2CCCC[C@H]2C(=O)O[C@H]([C@H](C)C[C@@H]2CC[C@@H](O)[C@H](OC)C2)CC(=O)[C@H](C)/C=C(\C)[C@@H](O)[C@@H](OC)C(=O)[C@H](C)C[C@H](C)/C=C/C=C/C=C/1C [Sirolimus] | – | – | – | – | – | – | – | – | – | – | – | – | – | – | 0 | 0 | 0 | 0 | 0 | 0 | normalised viability (CAL-120 [1]; 10 nM): 54.5%; normalised viability (MDA-MB-231 [2]; 10 nM): 67.7%; normalised viability (DU-4475; 1 nM): 85.1%; normalised viability (HCC1143 [3]; 10 nM): 67.9%; normalised viability (CAL-148 [4]; 1 nM): 74.8%; normalised viability (CAL-85-1 [5]; 1 nM): 68.9%; normalised viability (MDA-MB-453 [6]; 1 nM): 54.3%; normalised viability (HDQ-P1; 1 nM): 76.7%; normalised viability (Hs578T; 10 nM): 58.2%; normalised viability (BT-549; 10 nM): 53%; normalised viability (MDA-MB-468; 10 nM): 65.4%; normalised viability (MDA-MB-436; 10 nM): 82.5%; normalised viability (HCC1937; 10 nM): 61.5%; normalised viability (CAL-51; 1 nM): 62.6%; normalised viability (SK-BR-3; 10 nM): 59.1%; normalised viability (HCC1599; 10 nM): 73.8%; normalised viability (BT-474; 10 nM): 65.9%; normalised viability (MFM-223; 10 nM): 49%
CC/C(=C(\c1ccccc1)c1ccc(OCCN(C)C)cc1)c1ccccc1 [Tamoxifen] | 106 | 91 | 94.1 | 126 | 108 | 102 | 257 | 104 | 91.7 | 88.3 | 122 | 97.5 | 93.7 | 92 | 0 | 3.47 | 0 | 0 | 1.12 | 1.55 | normalised viability (SK-BR-3; 100 nM): 90.7%; normalised viability (HCC1599; 100 nM): 92.5%; normalised viability (BT-474; 100 nM): 112%; normalised viability (MFM-223; 100 nM): 95.2%
